Reference: patent publication US10105357B2, “Indication of antibiotic drugs for preparation of cancer inhibition pharmaceutical composition” (LAUNX BIOMEDICAL CO., LTD., priority 2014, dated 2018)
Structures can show the parent of a compound that is named as a salt.

Columns and labels:
Type in all cases: cell-based, human
[1] = test system: PC3 (p53−) (Prostate Adenocarcinoma); experiment: Cell viability analysis, prostate cancer PC3; conditions: for viability at 10 µM: Homo sapiens, 72 h, read-out: cell viability (survival rate), PC3, drug 10 μM, 72 hours, WST-1, OD450 nm
[2] = test system: MCF7 (Mammary Gland, Adenocarcinoma); experiment: Cell viability analysis, breast cancer MCF7; conditions: for viability at 10 µM: Homo sapiens, MCF7, 72 h, read-out: cell viability (survival rate), MCF7, drug 10 μM, 72 hours, WST-1, OD450 nm
[3] = test system: HepG2 (Hepatocellular Carcinoma); experiment: Cell viability analysis, hepatic cancer HepG2; conditions: for viability at 10 µM: Homo sapiens, HepG2, 72 h, read-out: cell viability (survival rate), HepG2, drug 10 μM, 72 hours, WST-1, OD450 nm
[4] = test system: A375 (Amelanotic Melanoma); experiment: Cell viability analysis, skin cancer A375; conditions: for viability at 10 µM: Homo sapiens, A-375, 72 h, read-out: cell viability (survival rate), A375, drug 10 μM, 72 hours, WST-1, OD450 nm
[5] = test system: LoVo (Colorectal Adenocarcinoma); experiment: Cell viability analysis, colon cancer LoVo; conditions: for viability at 10 µM: Homo sapiens, LoVo, 72 h, read-out: cell viability (survival rate), LoVo, drug 10 μM, 72 hours, WST-1, OD450 nm
[6] = test system: MKN-45 (Gastric Adenocarcinoma); experiment: Cell viability analysis, gastric cancer MKN-45; conditions: for viability at 10 µM: Homo sapiens, MKN-45, 72 h, read-out: cell viability (survival rate), MKN-45, drug 10 μM, 72 hours, WST-1, OD450 nm
[7] = test system: HI650 (Lung Adenocarcinoma); experiment: Cell viability analysis, lung cancer HI650; conditions: for viability at 10 µM: Homo sapiens, NCI-H1650, 72 h, read-out: cell viability (survival rate), H1650, drug 10 μM, 72 hours, WST-1, OD450 nm
[8] = test system: cancer cell lines; experiment: Cell viability analysis (WST-1) on cancer cell lines; conditions: drug 10 μM, 72 hours, WST-1; Table 3
[9] = test system: HeLa (Cervix Adenocarcinoma); experiment: Cell viability analysis, cervical cancer HeLa; conditions: for viability at 10 µM: Homo sapiens, HeLa, 72 h, read-out: cell viability (survival rate), HeLa, drug 10 μM, 72 hours, WST-1, OD450 nm
[10] = test system: A549 (Lung Adenocarcinoma); experiment: Cell viability analysis, lung cancer A549; conditions: for viability at 10 µM: Homo sapiens, A549, 72 h, read-out: cell viability (survival rate), A549, drug 10 μM, 72 hours, WST-1, OD450 nm
[11] = test system: HL-60 (Acute Promyelocytic Leukemia); experiment: Cell viability analysis, leukemia HL-60; conditions: for viability at 10 µM: Homo sapiens, HL-60, 72 h, read-out: cell viability (survival rate), HL-60, drug 10 μM, 72 hours, WST-1, OD450 nm
[12] = test system: TSGH-8301 (Urinary Bladder Carcinoma); experiment: Cell viability analysis, bladder cancer TSGH-8301; conditions: for viability at 10 µM: Homo sapiens, 72 h, read-out: cell viability (survival rate), TSGH, drug 10 μM, 72 hours, WST-1, OD450 nm
[13] = test system: AGS (Gastric Adenocarcinoma); experiment: Cell viability analysis, gastric cancer AGS; conditions: for viability at 10 µM: Homo sapiens, 72 h, read-out: cell viability (survival rate), AGS, drug 10 μM, 72 hours, WST-1, OD450 nm

Row | SMILES | viability at 10 µM [1] [%] | viability at 10 µM [2] [%] | viability at 10 µM [3] [%] | viability at 10 µM [4] [%] | viability at 10 µM [5] [%] | viability at 10 µM [6] [%] | viability at 10 µM [7] [%] | inhibition effect on different cancer cell lines [8] | viability at 10 µM [9] [%] | viability at 10 µM [10] [%] | viability at 10 µM [11] [%] | viability at 10 µM [12] [%] | viability at 10 µM [13] [%] | other results
1 | C[C@]12C=CC(=O)C=C1CC[C@@H]1[C@@H]2[C@@H](O)C[C@@]2(C)[C@H]1CC[C@]2(O)C(=O)CO [Prednisolone (Hydroretrocortine), Prednisolone] | 83.3 | 45.5 | 82.7 | 71 | 92.5 | 67.8 | 82.5 | significant inhibition effect | 78.7 | 71.3 | 99 | 86.2 | 124 | 
2 | CO/N=C(\C(=O)N[C@@H]1C(=O)N2C(C(=O)O)=C(CSC(=O)c3ccco3)CS[C@H]12)c1csc(N)n1 [Ceftiofur hydrochloride] | 73.1 | 159 | 91.9 | 92.8 | 85 | 85.5 | 44 | significant inhibition effect | 92.2 | 61.6 | 92.2 | 50.6 | 69.4 | 
3 | CCN1CCN(c2cc3c(cc2F)c(=O)c(C(=O)O)cn3C2CC2)CC1 [Enrofloxacin] | 48.6 | 66.6 | 77.2 | 65.2 | 84.8 | 37.4 | 44.5 | significant inhibition effect | 67 | 67.5 | 86.6 | 77.9 | 94.5 | 
4 | Oc1c(Cl)cc(Cl)c2cccnc12 [Chloroxine] | 87.2 | 68.7 | 93.9 | 72.5 | 85.5 | 52.7 | 77.1 | significant inhibition effect | 71.7 | 120 | 50.5 | 62.7 | 31.1 | 
5 | [O-][n+]1ccccc1[S-].[O-][n+]1ccccc1[S-].[Zn+2] [Pyrithione zinc] |  |  |  |  |  |  |  | significant inhibition effect |  |  |  |  |  | cell viability (survival rate), PC3 [1]: 24.3; cell viability (survival rate), MCF7 [2]: 51.8; cell viability (survival rate), HepG2 [3]: 70.4; cell viability (survival rate), A375 [4]: 27.1; cell viability (survival rate), LoVo [5]: 45.5; cell viability (survival rate), MKN-45 [6]: 57.4; cell viability (survival rate), H1650 [7]: 60.6; cell viability (survival rate), HeLa [9]: 47.4; cell viability (survival rate), A549 [10]: 29.7; cell viability (survival rate), HL-60 [11]: 34.5; cell viability (survival rate), TSGH [12]: 28.7; cell viability (survival rate), AGS [13]: 35.4
6 | C[C@@H]1CC[C@H]2[C@@H](C)C(=O)O[C@@H]3O[C@@]4(C)CC[C@@H]1[C@]32OO4 [Artemisinin] | 92.5 | 151 | 116 | 88.9 | 104 | 117 | 106 | significant inhibition effect | 120 | 98.7 | 146 | 63.6 | 87.7 | 
7 | NCCS(=O)(=O)O [Taurine] | 61.1 | 91.5 | 93.1 | 77.6 | 98.5 | 61.6 | 46.1 | significant inhibition effect | 84.9 | 84 | 116 | 110 | 64.1 | 
